How the values were obtained:
ALDH1A2 [1] = target: T1, ALDH1A2 (Homo sapiens, UniProt O94788); experiment: DEAB inhibition and IC50 determination; type: biochemical
T1 sequence (O94788 1-518): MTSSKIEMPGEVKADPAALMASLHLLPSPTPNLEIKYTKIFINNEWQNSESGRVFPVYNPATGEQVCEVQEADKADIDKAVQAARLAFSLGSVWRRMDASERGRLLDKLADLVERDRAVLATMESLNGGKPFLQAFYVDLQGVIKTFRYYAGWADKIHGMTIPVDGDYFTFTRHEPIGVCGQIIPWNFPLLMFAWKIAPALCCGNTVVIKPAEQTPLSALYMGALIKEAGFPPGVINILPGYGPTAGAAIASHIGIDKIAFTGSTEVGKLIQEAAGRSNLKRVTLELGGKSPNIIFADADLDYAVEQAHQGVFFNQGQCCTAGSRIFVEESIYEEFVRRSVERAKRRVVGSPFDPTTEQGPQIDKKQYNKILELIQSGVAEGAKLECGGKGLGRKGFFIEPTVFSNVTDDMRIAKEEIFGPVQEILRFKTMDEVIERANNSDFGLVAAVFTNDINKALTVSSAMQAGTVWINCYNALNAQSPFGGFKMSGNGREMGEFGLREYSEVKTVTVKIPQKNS

ALDH4A1 [2] = target: T2, ALDH4A1 (Homo sapiens, UniProt P30038); experiment: Wavelength scans to monitor DEAB oxidation; type: biochemical; settings: DEAB as substrate of ALDH4A1
T2 sequence (P30038 25-563): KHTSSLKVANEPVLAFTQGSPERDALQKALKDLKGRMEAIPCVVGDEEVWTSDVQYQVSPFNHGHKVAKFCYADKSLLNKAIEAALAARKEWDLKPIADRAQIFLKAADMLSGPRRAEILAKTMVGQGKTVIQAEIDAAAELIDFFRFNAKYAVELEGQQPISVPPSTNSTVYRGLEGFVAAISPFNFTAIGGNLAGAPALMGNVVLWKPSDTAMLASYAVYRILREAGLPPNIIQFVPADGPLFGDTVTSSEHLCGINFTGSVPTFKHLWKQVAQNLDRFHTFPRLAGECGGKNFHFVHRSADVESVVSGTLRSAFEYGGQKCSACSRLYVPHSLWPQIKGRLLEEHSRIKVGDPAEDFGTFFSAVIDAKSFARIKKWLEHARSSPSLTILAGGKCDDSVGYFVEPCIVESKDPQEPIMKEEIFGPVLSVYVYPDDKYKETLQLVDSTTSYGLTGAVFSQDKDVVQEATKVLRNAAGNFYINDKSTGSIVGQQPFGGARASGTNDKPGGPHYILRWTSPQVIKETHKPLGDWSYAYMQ

ALDH1L1 [3] = target: T3, ALDH1L1 (Rattus norvegicus, UniProt P28037); experiment: DEAB inhibition and IC50 determination
T3 sequence (P28037 417-902 limits assumed): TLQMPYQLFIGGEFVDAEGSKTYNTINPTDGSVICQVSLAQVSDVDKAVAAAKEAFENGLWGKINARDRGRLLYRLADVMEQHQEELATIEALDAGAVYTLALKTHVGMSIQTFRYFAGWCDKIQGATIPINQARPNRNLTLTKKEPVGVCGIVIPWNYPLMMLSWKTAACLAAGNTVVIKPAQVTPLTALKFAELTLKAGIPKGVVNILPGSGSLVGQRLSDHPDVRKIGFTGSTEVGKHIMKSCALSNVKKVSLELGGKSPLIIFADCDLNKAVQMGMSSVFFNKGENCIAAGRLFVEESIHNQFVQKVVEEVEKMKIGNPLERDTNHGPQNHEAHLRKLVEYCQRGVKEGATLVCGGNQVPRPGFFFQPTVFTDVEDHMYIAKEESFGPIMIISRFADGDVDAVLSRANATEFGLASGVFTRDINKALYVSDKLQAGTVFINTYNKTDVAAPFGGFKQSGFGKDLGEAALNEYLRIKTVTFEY

ALDH3A1 [4] = target: T4, ALDH3A1 (Homo sapiens, UniProt P30838); experiment: Wavelength scans to monitor DEAB oxidation; type: biochemical; settings: DEAB as substrate of ALDH3A1
T4 sequence (P30838 1-453): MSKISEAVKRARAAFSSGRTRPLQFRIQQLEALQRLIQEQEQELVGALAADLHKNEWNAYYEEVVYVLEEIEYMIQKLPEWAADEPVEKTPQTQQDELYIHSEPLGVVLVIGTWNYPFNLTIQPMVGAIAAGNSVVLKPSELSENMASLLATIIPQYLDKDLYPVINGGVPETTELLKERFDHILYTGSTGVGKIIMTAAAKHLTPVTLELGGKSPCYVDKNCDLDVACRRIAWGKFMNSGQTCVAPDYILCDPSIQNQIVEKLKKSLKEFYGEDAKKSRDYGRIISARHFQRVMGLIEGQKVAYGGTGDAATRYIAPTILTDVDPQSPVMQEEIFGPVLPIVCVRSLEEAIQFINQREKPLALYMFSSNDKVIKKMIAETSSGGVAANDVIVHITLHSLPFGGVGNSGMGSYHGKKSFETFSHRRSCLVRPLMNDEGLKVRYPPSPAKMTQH

ALDH1A2 [5] = target: T1, ALDH1A2; experiment: Kinetics of irreversible; type: biochemical
ALDH1A2 [6] = target: T1, ALDH1A2; experiment: Effect of dialysis on DEAB-induced inhibition; type: biochemical
ALDH1B1 [7] = target: T5, ALDH1B1 (Homo sapiens, UniProt P30837); experiment: Wavelength scans to monitor DEAB oxidation; type: biochemical; settings: DEAB as substrate of ALDH1B1
T5 sequence (P30837 18-517): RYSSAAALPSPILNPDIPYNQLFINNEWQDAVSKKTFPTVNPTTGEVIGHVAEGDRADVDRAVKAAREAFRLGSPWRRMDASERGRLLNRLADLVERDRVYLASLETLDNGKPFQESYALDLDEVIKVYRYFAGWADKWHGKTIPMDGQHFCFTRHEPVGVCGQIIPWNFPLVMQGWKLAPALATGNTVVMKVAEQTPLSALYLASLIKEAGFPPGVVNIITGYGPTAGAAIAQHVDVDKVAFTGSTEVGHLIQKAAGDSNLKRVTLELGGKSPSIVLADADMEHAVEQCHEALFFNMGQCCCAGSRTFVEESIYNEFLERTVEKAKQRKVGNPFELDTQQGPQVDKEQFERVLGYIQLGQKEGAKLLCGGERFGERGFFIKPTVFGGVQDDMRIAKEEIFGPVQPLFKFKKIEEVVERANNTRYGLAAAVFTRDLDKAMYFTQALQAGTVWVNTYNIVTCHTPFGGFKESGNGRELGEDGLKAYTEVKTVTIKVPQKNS

ALDH5A1 [8] = target: T6, ALDH5A1 (Homo sapiens, UniProt P51649); experiment: Wavelength scans to monitor DEAB oxidation; type: biochemical; settings: DEAB as substrate of ALDH5A1
T6 sequence (P51649 48-535): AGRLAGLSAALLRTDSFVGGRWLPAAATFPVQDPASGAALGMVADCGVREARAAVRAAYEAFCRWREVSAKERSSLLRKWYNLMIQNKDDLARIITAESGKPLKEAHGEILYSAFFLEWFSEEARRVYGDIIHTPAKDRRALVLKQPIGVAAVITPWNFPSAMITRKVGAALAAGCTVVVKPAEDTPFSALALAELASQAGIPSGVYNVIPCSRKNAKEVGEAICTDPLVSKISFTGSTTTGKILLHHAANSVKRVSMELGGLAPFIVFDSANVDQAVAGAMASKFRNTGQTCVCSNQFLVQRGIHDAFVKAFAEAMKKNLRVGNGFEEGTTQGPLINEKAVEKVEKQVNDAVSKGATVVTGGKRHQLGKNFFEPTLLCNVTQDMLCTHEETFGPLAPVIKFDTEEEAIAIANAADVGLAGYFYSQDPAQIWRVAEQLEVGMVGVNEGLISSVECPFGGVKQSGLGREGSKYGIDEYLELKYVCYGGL

ALDH1B1 [9] = target: T5, ALDH1B1; experiment: DEAB inhibition and IC50 determination; type: biochemical
ALDH1A3 [10] = target: T7, ALDH1A3 (Homo sapiens, UniProt P47895); experiment: DEAB inhibition and IC50 determination; type: biochemical
T7 sequence (P47895 1-512): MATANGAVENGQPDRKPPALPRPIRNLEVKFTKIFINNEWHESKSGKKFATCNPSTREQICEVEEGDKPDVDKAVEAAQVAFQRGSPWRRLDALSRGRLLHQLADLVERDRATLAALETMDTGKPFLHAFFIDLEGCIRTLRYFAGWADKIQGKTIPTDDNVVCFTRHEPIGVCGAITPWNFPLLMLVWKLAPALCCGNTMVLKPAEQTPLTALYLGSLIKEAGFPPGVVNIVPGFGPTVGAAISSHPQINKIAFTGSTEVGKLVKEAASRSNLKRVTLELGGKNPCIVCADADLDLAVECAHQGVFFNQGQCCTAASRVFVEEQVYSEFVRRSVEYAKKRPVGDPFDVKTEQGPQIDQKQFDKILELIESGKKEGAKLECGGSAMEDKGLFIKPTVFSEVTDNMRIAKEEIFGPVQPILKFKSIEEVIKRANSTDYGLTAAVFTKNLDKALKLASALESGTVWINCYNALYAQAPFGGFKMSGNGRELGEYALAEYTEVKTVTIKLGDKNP

ALDH5A1 [11] = target: T6, ALDH5A1; experiment: DEAB inhibition and IC50 determination
ALDH1A2 [12] = target: T1, ALDH1A2; experiment: Q-TOF mass spectrometry of enzyme modification by DEAB; type: binding; settings: 5.0 μM ALDH1A2, 10 μM DEAB, without NAD+, 1 h
ALDH1A2 [13] = target: T1, ALDH1A2; experiment: Wavelength scans to monitor DEAB oxidation; type: biochemical; settings: DEAB as substrate of ALDH1A2
ALDH4A1 [14] = target: T2, ALDH4A1; experiment: DEAB inhibition and IC50 determination
ALDH3A1 [15] = target: T4, ALDH3A1; experiment: Enzyme kinetics with DEAB as a substrate; settings: ALDH3A1 oxidation of the substrate
ALDH1L1 [16] = target: T3, ALDH1L1; experiment: Wavelength scans to monitor DEAB oxidation; type: biochemical; settings: DEAB as substrate of ALDH1L1
ALDH1A3 [17] = target: T7, ALDH1A3; experiment: Wavelength scans to monitor DEAB oxidation; type: biochemical; settings: DEAB as substrate of ALDH1A3

Q: What does the source list for `CCN(CC)c1ccc(C=O)cc1` [DEAB]?
A: IC50 (ALDH1A2 [1]): 1200 ± 100 nM; Substrate (ALDH4A1 [2]): No; IC50 (ALDH1L1 [3]): > 20 µM; Substrate (ALDH3A1 [4]): Yes; Mode of inhibition (ALDH1A2 [5]): Covalent inhibitor; activity at 100 µM (ALDH1A2 [6]; 0.5 h, pH 7.5, read-out: activity recovered after dialysis): 75%; recovery of enzymatic activity after dialysis (ALDH1A2 [6]; ALDH1A2, pre-incubated with DEAB and NAD+, dialyzed 4 h): neither the ALDH2 nor the ALDH1A2 samples regained enzymatic activity; Substrate (ALDH1B1 [7]): Yes (slow); Substrate (ALDH5A1 [8]): Yes (slow); IC50 (ALDH1B1 [9]): 1200 ± 100 nM; IC50 (ALDH1A3 [10]): 3 ± 0.3 µM; IC50 (ALDH5A1 [11]): 13 ± 0.5 µM; fraction of enzyme with DEAB bound (ALDH1A2 [12]): approximately one-third; Substrate (ALDH1A2 [13]): No; IC50 (ALDH4A1 [14]): > 20 µM; Km (ALDH3A1 [15]): 5.6 ± 0.7 µM; Substrate (ALDH1L1 [16]): No; Substrate (ALDH1A3 [17]): Yes (slow)

— paper PMC4414715 (Chemico-biological interactions, 2014)
